Data on 8 compounds can be found in patent US10434098B2, “Deuterated dehydrophenylahistin compounds and preparation method thereof and use thereof in preparation of anti-tumor drugs” (MARINE BIOMEDICAL RESEARCH INSTITUTE OF QINGDAO CO., LTD., priority 2015, dated 2019).

What all share (type): cell-based
In assay [1] the test system is human acute T cell leukemia cell Jurkat. In words: MTT inhibition ratio on tumor cells Jurkat. Conditions: for Inhibition ratio (%): 72 h, MTT; for activity of inhibiting tumors compared with positive control: summary of Table 2. As for the experimental part: (§1) The inhibition ratio of the selected compounds on tumor cells A431 and Jurkat is measured via the MTT analytical method.
(§2) 1) Cell strains: human skin cancer cell strain A431 and human acute T cell leukemia cell Jurkat. The ells grow in an RPMI-1640 culture medium and high glucose DMEM (Gibco BRL, Rockville, Md., USA)+10% fetal calf serum (containing 2 mM L-glutamine, penicillin and streptomycin), and putting them into an incubator at 37° C. (5% CO2-95% air) for growing, carrying out digestive passage with 0.25% trypsin, and changing the solution every 1 to 2 days.
(§3) 2) The dissolution and dilution of compounds: according to the molecular weight and mass of the compounds, preparing into a 10 mM of mother solution respectively using DMSO (SIGMA), and diluting to the required concentration of 100 μM (DMSO content≤3%o) with the RPMI-1640 culture medium. Storing the diluted drugs at temperature of −20° C.
(§4) 1) Cell inoculation: Taking cells in the logarithmic phase, after digestion with pancreatin, the cells disperse into single cells, counting, adjusting cell suspension to […], inoculating in the 96-well plates with 180 μL in each well, and making the amount of the inoculated cells is 4.0×10^3 cells/well. After cell attachment, adding the fresh culture media containing compounds with different concentrations respectively, making the concentrations of the compounds reach 12.5 nM and 6.25 nM, setting 3 duplicate wells for each concentration, operating in absence of light, and adjusting the content of DMSO in each concentration to be consistent.
(§5) 2) After drug incubation for 72 h, adding 20 μL of MTT (3-[4,5-dimethylthiazol-2-yl]-2,5-diphenyltetrazolium bromide, Sigma; 5 mg/mL) into each well, incubating in a incubator for 4 h, removing supernate, adding 150 μL of DMSO into each well for dissolving, and measuring absorbancy at 570 nm using the microplate reader. According to the formula: Inhibition ratio=[(A570 control well−A570 administration well)/A570 control well]×100%, to calculate the inhibition ratio of each concentration, and the result is shown in the table 2.

Assay [2] deals with intracellular microtubulin of human epidermal carcinoma A431. Put plainly: High content imaging analysis of microtubulin (immunofluorescent staining, Alexa 488). Conditions: 12.5 nM, 24 h; for Alexa488 stained fluorescence intensity of microtubulin in the cells: versus blank and DMSO control, FIG. 3/4; for microtubulin distribution and cellular morphology / Alexa488 fluorescence intensity compared with the positive control Plinabulin: A431 cells; for microtubulin distribution and cellular morphology: FIG. 3; for Alexa488 fluorescence intensity compared with the positive control Plinabulin: FIG. 4. On the procedure: Plinabulin (dehydro-phenylahistin) is used as positive control, and concentration is set as 12.5 nM. According to the data in earlier-stage, 3 kinds of samples are selected, i.e., compounds 1, 2 and 3. The concentrations of all samples are set as 12.5 nM. According to the experiment method for specific immunofluorescent staining (Alexa 488), the effect of the compounds 1, 2 and 3 on the expression of intracellular microtubulin of human epidermal carcinoma A431 is detected via the high content imaging analysis system. 1) Taking cells in the logarithmic phase, after digestion with pancreatin, the cells disperse into single cells counting, inoculating in the 96-well plates at 1.2×10^4 cells/well, putting at temperature of 37° C., culturing in a 5% CO2 incubator for 24 h until cell attachment. 2) After cell attachment, for experiment group, adding the fresh culture medium containing compounds with different concentrations respectively into each well, making the concentrations of the compounds reach 12.5 nM, and setting 3 duplicate wells for each concentration. In the control group, adding a solvent DMSO with equimultiple diluting, selecting Plinabulin (dehydro-phenylahistin) as a positive drug, setting 3 duplicate wells in each group, and culturing in an incubator at temperature of 37° C. under 5% CO2 saturated humidity for 24 h. 3) Absorbing the culture medium after 24 h, and washing with PBS for 3 times; fixing with 4% paraformaldehyde for 30 min, absorbing paraformaldehyde, and washing with PBS for 3 times; sealing with 0.3% Triton X-100 and 5% BSA for 30 min, absorbing, and washing with PBS for 3 times; adding Tubulin antibody (mouse antibody, diluting in a ratio of 1:200), and staying overnight at temperature of 4° C.; absorbing, and washing with PBS for 3 times; adding DyLight 488-goat anti mouse IgG (diluting in a ratio of 1:1000), and placing at room temperature for 90 min 4) Photographing analysis of high content imaging analysis system

Assay [3] concerns human skin cancer cell strain A431. Put plainly: MTT inhibition ratio on tumor cells A431. The following applies: for Inhibition ratio (%): 72 h, MTT; for activity of inhibiting tumors compared with positive control: A431, summary of Table 2. On the procedure:
as §1, §2, §3, §4, §5

As for `[2H]/C(c1nc[nH]c1C(C)(C)C)=c1/[nH]c(=O)/c(=C/c2c([2H])c([2H])c([2H])c([2H])c2[2H])[nH]c1=O` [Compound 1, (3Z,6Z)-3-(phenyl-2,3,4,5,6-d5)-methylene-6-((5-(tert-butyl)-1H-imidazol-4-yl)methylene-d)piperazine-2,5-dione], the “Inhibition ratio (%)” value in assay [1] (concentration 12.5 nM) turned out to be 86.46%; in assay [3] (A431, concentration 12.5 nM) it was 95.04%. Moreover, the “activity of inhibiting tumors compared with positive control” value in assay [1] and in assay [3] was “close to that of the positive control Plinabulin” in each case. In addition, in assay [2], the “Alexa488 stained fluorescence intensity of microtubulin in the cells” value (“Alexa488 stained fluorescence intensity” for short) is “obviously enhanced”. Moreover, the “microtubulin distribution and cellular morphology” value in assay [2] is “aggregation in microtubulin and a significant change in cellular morphology”. For the same compound, in assay [2], the “Alexa488 fluorescence intensity compared with the positive control Plinabulin” value is “higher than the positive control in the effect”.

As for `[2H]/C(c1ccccc1)=c1/[nH]c(=O)/c(=C(\[2H])c2nc[nH]c2C(C)(C)C)[nH]c1=O` [Compound 2, (3Z,6Z)-3-(phenylmethylene-d)-6-((5-(tert-butyl)-1H-imidazol-4-yl)methylene-d)piperazine-2,5-dione], the “Inhibition ratio (%)” value in assay [1] (concentration 12.5 nM) was 79.65%. The “activity of inhibiting tumors compared with positive control” value in assay [1] is reported as “close to that of the positive control Plinabulin”. For the same compound, in assay [2], the “Alexa488 stained fluorescence intensity” value is “obviously enhanced”; the “microtubulin distribution and cellular morphology” value is “aggregation in microtubulin and a significant change in cellular morphology”; the “Alexa488 fluorescence intensity compared with the positive control Plinabulin” value was “higher than the positive control in the effect”. In addition, the “Inhibition ratio (%)” value in assay [3] (A431, concentration 12.5 nM) amounted to 94.11%. Moreover, in assay [3], the “activity of inhibiting tumors compared with positive control” value is listed as “close to that of the positive control Plinabulin”.

`[2H]/C(c1nc[nH]c1C(C)(C)C)=c1/[nH]c(=O)/c(=C/c2ccccc2)[nH]c1=O` [Compound 3, (3Z,6Z)-3-(phenylmethylene)-6-((5-(tert-butyl)-1H-imidazol-4-yl)methylene-d)piperazine-2,5-dione]: the “Inhibition ratio (%)” value in assay [1] (concentration 12.5 nM) is 86.09%. The “activity of inhibiting tumors compared with positive control” value in assay [1] is reported as “close to that of the positive control Plinabulin”. In assay [2], the “Alexa488 stained fluorescence intensity” value is on record as “obviously enhanced”; the “microtubulin distribution and cellular morphology” value was “aggregation in microtubulin and a significant change in cellular morphology”; the “Alexa488 fluorescence intensity compared with the positive control Plinabulin” value was “higher than the positive control in the effect”. The “Inhibition ratio (%)” value in assay [3] (A431, concentration 12.5 nM) was 93.79%. Also, the “activity of inhibiting tumors compared with positive control” value in assay [3] is “close to that of the positive control Plinabulin”.

Regarding `[2H]/C(c1ccccc1)=c1/[nH]c(=O)/c(=C/c2nc[nH]c2C(C)(C)C)[nH]c1=O` [Compound 4, (3Z,6Z)-3-(phenylmethylene-d)-6-((5-(tert-butyl)-1H-imidazol-4-yl)methylene)piperazine-2,5-dione], the “Inhibition ratio (%)” value was determined as 16.04% in assay [1] (concentration 6.25 nM); 82.33% in assay [1] (concentration 12.5 nM); 53.90% in assay [3] (A431, concentration 6.25 nM); 91.85% in assay [3] (A431, concentration 12.5 nM). Moreover, the “activity of inhibiting tumors compared with positive control” value in assay [1] and in assay [3] was “close to that of the positive control Plinabulin” in each case.

For the compound `[2H]c1c([2H])c([2H])c(/C=c2\[nH]c(=O)/c(=C/c3nc[nH]c3C(C)(C)C)[nH]c2=O)c([2H])c1[2H]` [Compound 5, (3Z,6Z)-3-(phenyl-2,3,4,5,6-d5)-methylene-6-((5-(tert-butyl)-1H-imidazol-4-yl)methylene)piperazine-2,5-dione], the “Inhibition ratio (%)” value in assay [1] (concentration 12.5 nM) came out at 16.86%; in assay [3] (A431, concentration 12.5 nM), 66.00%. Moreover, the “activity of inhibiting tumors compared with positive control” value in assay [1] and in assay [3] was “close to that of the positive control Plinabulin” each time.

As for `[2H]/C(c1c([2H])c([2H])c([2H])c([2H])c1[2H])=c1/[nH]c(=O)/c(=C/c2nc[nH]c2C(C)(C)C)[nH]c1=O` [Compound 6, (3Z,6Z)-3-(phenyl-2,3,4,5,6-d5)-methylene-d-6-((5-(tert-butyl)-1H-imidazol-4-yl)methylene)piperazine-2,5-dione], the “Inhibition ratio (%)” value is 7.70% in assay [1] (concentration 6.25 nM); 73.40% in assay [1] (concentration 12.5 nM); 16.17% in assay [3] (A431, concentration 6.25 nM); 79.28% in assay [3] (A431, concentration 12.5 nM). The “activity of inhibiting tumors compared with positive control” value in assay [1] and in assay [3] was “close to that of the positive control Plinabulin” in each case.

For `[2H]/C(c1nc[nH]c1C(C)(C)C)=c1/[nH]c(=O)/c(=C(\[2H])c2c([2H])c([2H])c([2H])c([2H])c2[2H])[nH]c1=O` [Compound 7, (3Z,6Z)-3-(phenyl-2,3,4,5,6-d5)-methylene-d-6-((5-(tert-butyl)-1H-imidazol-4-yl)methylene-d)piperazine-2,5-dione], the “Inhibition ratio (%)” value was 64.49% in assay [1] (concentration 12.5 nM) and 87.73% in assay [3] (A431, concentration 12.5 nM). Moreover, the “activity of inhibiting tumors compared with positive control” value in assay [1] and in assay [3] was “close to that of the positive control Plinabulin” throughout.

For `CC(C)(C)c1[nH]cnc1/C=c1\[nH]c(=O)/c(=C/c2ccccc2)[nH]c1=O` [Plinabulin, reference compound], the “Inhibition ratio (%)” value turned out to be 13.75% in assay [1] (concentration 6.25 nM); 79.69% in assay [1] (concentration 12.5 nM); 63.25% in assay [3] (A431, concentration 6.25 nM); 91.81% in assay [3] (A431, concentration 12.5 nM). Moreover, the “Alexa488 stained fluorescence intensity” value in assay [2] is listed as “obviously enhanced”. In addition, the “microtubulin distribution and cellular morphology” value in assay [2] is “aggregation in microtubulin and a significant change in cellular morphology”.
